Experimental data as given in paper PMC11537199 (RSC Advances, 2024).
“And” between values parts separate entries of the source, which are not always exact repeats. Identical values can stand only once. Like-named read-outs stand apart in the source and are kept apart here.

Experiments:
[1] = system: picornavirus and norovirus M^pros (PV, HRV, EV71, NV); format: biochemical, poliovirus, human rhinovirus, enterovirus A71; conditions: cross-test against PV, EV71 and NV M^pro, 500 nM enzyme, Bis-Tris pH 7.6, 37 °C
[2] = target: Polio M^pro (Poliovirus type 1, UniProt P03300); conditions: pH 7.6
[3] = target: HRV M^pro (Human rhinovirus 14, UniProt P03303); format: biochemical; conditions: 500 nM enzyme, substrate 6-850 μM; for vmax: Fig. S29 Michaelis-Menten fit; for vmax / catalytic efficiency (kcat/KM): Bis-Tris pH 7.6, 37 °C; for Km: Table 7, 20 mM Bis-Tris pH 7.6, 1 mM DTT, 0.02% Tween-20, 37 °C, read 60 min; for catalytic efficiency (kcat/KM): Table 8
[4] = target: EV71 M^pro (Human enterovirus 71, UniProt Q66478); format: biochemical, enterovirus A71 (EV71); conditions: 500 nM enzyme, substrate 6-850 μM; for catalytic efficiency (kcat/KM): Table 8
[5] = target: NV M^pro (Norovirus, UniProt Q83883); format: biochemical; conditions: 500 nM enzyme, substrate 6-850 μM; for catalytic efficiency (kcat/KM): Table 8
[6] = system: PEDV M^pro; format: biochemical, porcine epidemic diarrhea virus (PEDV); conditions: for K M / Km / vmax: pH 7.6
[7] = system: EqCoV M^pro; format: biochemical, equine coronavirus (EqCoV); conditions: pH 7.6
[8] = target: T1, SARS-CoV-2 M^pro (Severe acute respiratory syndrome coronavirus 2, UniProt P0DTD1)
[9] = system: coronavirus M^pros (SARS-CoV-2, FIPV, PEDV, EqCoV); format: biochemical
[10] = target: T1, SARS-CoV-2 M^pro; conditions: pH 7.6
[11] = target: FIPV M^pro (Feline coronavirus, UniProt Q98VG9); format: biochemical, feline infectious peritonitis virus (FIPV); conditions: pH 7.6
[12] = system: coronaviral M^pros (SARS-CoV-2, FIPV, PEDV, EqCoV); format: biochemical
[13] = Fig. S31 Michaelis-Menten fit, Bis-Tris pH 7.6, 37 °C
[14] = Table 7, 20 mM Bis-Tris pH 7.6, 1 mM DTT, 0.02% Tween-20, 37 °C, read 60 min
[15] = Fig. S32 Michaelis-Menten fit, Bis-Tris pH 7.6, 37 °C

NV M^pro, sequence (Q83883 1101-1281 limits assumed): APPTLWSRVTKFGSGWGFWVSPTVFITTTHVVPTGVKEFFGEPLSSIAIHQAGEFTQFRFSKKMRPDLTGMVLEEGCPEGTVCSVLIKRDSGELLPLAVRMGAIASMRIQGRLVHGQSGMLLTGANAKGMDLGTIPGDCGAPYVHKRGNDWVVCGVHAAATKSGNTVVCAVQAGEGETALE
EV71 M^pro, sequence (Q66478 1549-1731 limits assumed): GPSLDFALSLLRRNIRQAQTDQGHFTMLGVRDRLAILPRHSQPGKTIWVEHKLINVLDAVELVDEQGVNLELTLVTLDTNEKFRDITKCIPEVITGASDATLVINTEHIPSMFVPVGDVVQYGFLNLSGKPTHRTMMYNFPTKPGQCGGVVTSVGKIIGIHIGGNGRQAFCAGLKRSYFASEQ
HRV M^pro, sequence (P03303 1538-1719 limits assumed): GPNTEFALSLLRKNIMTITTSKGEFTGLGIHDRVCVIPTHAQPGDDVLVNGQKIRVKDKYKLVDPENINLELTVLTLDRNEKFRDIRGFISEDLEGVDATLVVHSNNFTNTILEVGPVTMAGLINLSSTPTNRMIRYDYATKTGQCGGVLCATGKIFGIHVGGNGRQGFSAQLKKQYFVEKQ
Polio M^pro, sequence (P03300 1566-1748 limits assumed): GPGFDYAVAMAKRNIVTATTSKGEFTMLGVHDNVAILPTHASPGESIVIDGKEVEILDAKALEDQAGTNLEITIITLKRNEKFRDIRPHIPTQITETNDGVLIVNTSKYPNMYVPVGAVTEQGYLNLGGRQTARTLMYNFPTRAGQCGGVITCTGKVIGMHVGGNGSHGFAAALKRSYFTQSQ
FIPV M^pro, sequence (Q98VG9 2904-3205 limits assumed): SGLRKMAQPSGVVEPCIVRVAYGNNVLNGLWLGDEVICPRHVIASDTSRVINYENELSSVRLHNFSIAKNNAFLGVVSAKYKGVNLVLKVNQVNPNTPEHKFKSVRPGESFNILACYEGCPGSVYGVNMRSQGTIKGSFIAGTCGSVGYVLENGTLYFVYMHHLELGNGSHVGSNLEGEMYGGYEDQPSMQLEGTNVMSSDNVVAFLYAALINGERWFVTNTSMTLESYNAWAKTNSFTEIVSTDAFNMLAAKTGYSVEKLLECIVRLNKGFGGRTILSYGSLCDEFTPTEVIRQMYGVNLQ

“2-Abz-DFHLQ↓GPY^(NO2)R [NPFRET, shorter, truncated consensus substrate proposed in the literature, reference compound]” was tested, and the “recognition of substrate by picornaviral and noroviral main proteases” value [1] was “lack of binding”.
In the case of 2-Abz-EALFQ↓GPPKY^(NO2)R [EV71FRET], the Km [2] is reported as 1140 µM and 1110 µM, the “catalytic efficiency (kcat/KM)” value [2] is reported as 2700 ± 315 M⁻¹ s⁻¹ and the vmax [2] is reported as 1.366 ± 0.30 µM/s. For the same compound, the vmax [3] was 0.7709 ± 0.08 µM/s, the Km [3] was 480 ± 80 µM and the “catalytic efficiency (kcat/KM)” value [3] was 3200 ± 405 M⁻¹ s⁻¹. For the same compound, the Km [4, 13] was 1640 µM, the vmax [4, 13] was 1.029 ± 0.13 µM/s and the Km [4, 14] was 1640 ± 261 µM. For the same compound, the “catalytic efficiency (kcat/KM)” value ([4]; Bis-Tris pH 7.6, 37 °C) was 1300 ± 138 M⁻¹ s⁻¹, the “recognition of substrate by picornaviral and noroviral main proteases” value [1] was “somewhat more promiscuous” and the Km [5, 15] was 622 µM. For the same compound, the vmax [5, 15] was 1.410 ± 0.16 µM/s, the Km [5, 14] was 620 ± 153 µM and the “catalytic efficiency (kcat/KM)” value ([5]; Bis-Tris pH 7.6, 37 °C) was 4500 ± 515 M⁻¹ s⁻¹.
With 2-Abz-EFQLQ↓GKMYDY^(NO2)R [NVFRET] the vmax [2] was 4.136 ± 1.36 µM/s, the Km [4, 13] was 1100 µM and the vmax [4, 13] was 1.914 ± 0.29 µM/s. For the same compound, the Km [4, 14] was 1100 ± 201 µM, the “catalytic efficiency (kcat/KM)” value ([4]; Bis-Tris pH 7.6, 37 °C) was 3400 ± 455 M⁻¹ s⁻¹ and the vmax [5, 15] was 0.4163 ± 0.08 µM/s. For the same compound, the Km [5, 14] was 613 ± 188 µM and the “catalytic efficiency (kcat/KM)” value ([5]; Bis-Tris pH 7.6, 37 °C) was 1300 ± 167 M⁻¹ s⁻¹.
For 2-Abz-ETLFQ↓GPVY^(NO2)R [HRFRET], the vmax [3] was 0.5348 ± 0.08 µM/s, the Km [3] was 340 ± 49 µM and the “catalytic efficiency (kcat/KM)” value [3] was 3000 ± 285 M⁻¹ s⁻¹. The “recognition of substrate by picornaviral and noroviral main proteases” value [1] was “only specific to rhinovirus M^pro”.
“2-Abz-NSTLQ↓SGY^(NO2)R [PEDV 2, truncated version of the PEDV FRET substrate]” was tested, and the k cat [6] was 2.6 ± 0.2 s⁻¹, the “K M” value [6] was 63 ± 11 µM and the Km [6] was 63 ± 11 µM. It also gave a vmax [6] of 0.266 ± 0.02 µM/s and a vmax [7] of 0.4516 µM/s.
With “2-Abz-STLAAGY^(NO2)R [(−) FRET, negative control FRET peptide that lacks the QS cleavage site]” the “cleavage by SARS-CoV-2 M^pro (LCMS analysis of cleavage products)” value [8] was “no cleavage” and the “recognition of substrate by coronavirus M^pros” value [9] was “None of the investigated M^pros recognize”.
2-Abz-VVTLQ↓SGY^(NO2)R [Blanchard-VV] showed a Km [6] of 85 ± 10 µM, a vmax [6] of 0.360 ± 0.04 µM/s and a Km [10] of 64 ± 10 µM. It also gave a vmax [10] of 0.2927 ± 0.02 µM/s, a Km [7] of 371 ± 70 µM and a Km [11] of 85 ± 15 µM. For the same compound, the vmax [11] was 0.3231 ± 0.04 µM/s.
2-Abz-YNSTLQ↓SGY^(NO2)R [PEDV 1] was tested, and the k cat [6] was 3.3 ± 0.3 s⁻¹, the “K M” value [6] was 192 ± 26 µM and the Km [6] was 192 ± 26 µM. It also gave a vmax [6] of 0.330 ± 0.02 µM/s and a vmax [7] of 0.4075 µM/s.
In the case of C[S+](C)[O-] [DMSO, dimethyl sulfoxide], the “decrease of enzyme activity” value [12] is reported as 42–60%.
With Tween-20 the “effect on catalytic activity” value [12] was “do not significantly reduce catalytic activity”.
